Patent US20250082610A1, “COMPOSITION, METHOD FOR MICROORGANISM GROWTH SUPPRESSION IN COMPOSITION FOR ORAL USE, AND AGENT FOR POTENTIATION OF MICROORGANISM-GROWTH-SUPPRESSING EFFECT OF QUERCETIN OR GLYCOSIDE THEREOF” (SUNTORY HOLDINGS LIMITED, priority 2022, published 2025)

Tests used:
Escherichia coli = details: Non-Patent Literature 1; cited from earlier work
Staphylococcus aureus = details: Non-Patent Literature 1; cited from earlier work
[1] = test system: Escherichia coli NBRC 3972; assay: Sterilizing (microorganism growth inhibiting) effect, viable bacterial count; format: cell-based; details: one hour after inoculation, room temperature, phosphate-buffered saline, vs control; FIG. 1, result in words
Procedure: Escherichia coli (Escherichia coli NBRC 3972) was used as a test bacterium. Escherichia coli was inoculated onto a standard agar medium and cultured at 30° C. to 35° C. for 24 hours. After culturing, the bacterial count was adjusted to […] using saline, whereby a test bacterial solution was obtained. Phosphate-buffered saline and ergothioneine were mixed to prepare a test sample 1 (ergothioneine concentration: 100 ppm (0.01 wt %)). Phosphate-buffered saline and isoquercitrin were mixed to prepare a test sample 2 (isoquercitrin concentration: 100 ppm (0.01 wt %)). Phosphate-buffered saline, ergothioneine, and isoquercitrin were mixed to prepare a test sample 3 (ergothioneine concentration: 2.5 ppm (0.00025 wt %), isoquercitrin concentration: 100 ppm (0.01 wt %)). Phosphate-buffered saline, ergothioneine, and isoquercitrin were mixed to prepare a test sample 4 (ergothioneine concentration: 100 ppm (0.01 wt %), isoquercitrin concentration: 100 ppm (0.01 wt %)). Phosphate-buffered saline was used as control. A test sample (5 mL) was inoculated with a 0.05 mL test bacterial solution and left standing at room temperature. […] After culturing, the number of colonies formed was counted, and the viable bacterial count was calculated (n=3). The sterilizing effect (%) was determined from the viable bacterial count (average of n=3) using the following formula. […]

[2] = test system: human β-defensin-1 (hBD-1); details: human immortalized keratinocyte cells (HaCaT cells); Patent Literature 1; cited from earlier work
[3] = test system: human β-defensin-3 (hBD-3); details: human immortalized keratinocyte cells (HaCaT cells); Patent Literature 1; cited from earlier work

SMILES | inhibition of growth of Escherichia coli (Escherichia coli) | inhibition of growth of Staphylococcus aureus (Staphylococcus aureus) | Sterilizing effect on Escherichia coli [1] | expression level of mRNA in hBD-1 [2] | expression level of mRNA in hBD-3 [3]
O=c1c(O)c(-c2ccc(O)c(O)c2)oc2cc(O)cc(O)c12 [quercetin] | inhibition of growth | inhibition of growth | – | – | –
C[N+](C)(C)[C@@H](Cc1c[nH]c(=S)[nH]1)C(=O)[O-] [L-ergothioneine] | – | – | no sterilizing effect | increased | increased
